Test results from patent US12358899B2, “Thyroid hormone receptor agonists and uses thereof” (XIZANG HAISCO PHARMACEUTICAL CO., LTD., priority 2018, dated 2025).

Columns and labels:
[1] = target: T1, CYP 3A4 (Homo sapiens, UniProt P08684); experiment: CYP inhibition in human liver microsome, 3A4; assay type: in vitro ADME; settings: human liver microsomes, substrate midazolam, top 50 μM; read-out: CYP450 inhibition IC50 3A4
T1 construct: from tissue; host or cells: human liver microsomes
Experimental: (§1) Test compounds were evaluated for CYP inhibition using human liver microsomes (HLM). Test compounds were 1:3 serially diluted starting at 50 μM to generate 7 different concentrations. After incubation of diluted test compounds with HLM, a substrate cocktail composed of phenacetin (10 uM), amodiaquine (2 uM), diclofenac (5 uM), s-mephenytoin (30 uM), dextromethorphan (5 uM), and midazolam (2 uM) was added to check the remaining CYP activity for CYP 1A2, 2C8, 2C9, 2C19, 2D6 and 3A4. The CYP activity was measured by detecting the peak area of individual metabolites of know CYP substrates using LC/MS/MS. A percentage of inhibition of CYP was calculated at each final concentration of test compound, through which an IC50 was fitted to represent the inhibition potential.

[2] = target: T2, CYP 2C19 (Homo sapiens, UniProt P33261); experiment: CYP inhibition in human liver microsome, 2C19; assay type: in vitro ADME; settings: human liver microsomes, substrate s-mephenytoin, top 50 μM; read-out: CYP450 inhibition IC50 2C19
T2 construct: from tissue; host or cells: human liver microsomes
Experimental: as §1

[3] = test system: C57BL/6cnc mice; experiment: Antifibrotic and fat reduction efficacy in NASH mouse model; assay type: in vivo; settings: for overall activity in the second NASH study, compounds compared / LDL-c level / liver TC / liver TG / plasma TC level / plasma LDL-c level / ALT level / liver weight: 1 mg/kg daily oral; for expression of DIO1 in liver: end of study; for ALT level / liver weight: to normal range
Experimental: (§2) C57BL/6cnc mice were fed with high-fat diet containing 60 kacl % fat and 0.10% methionine (no added choline) (Research Diets, A06071302) for 12 weeks to induce NASH model. After 12-week diet induction, the mice had increased plasma levels of TC, LDL-c, ALT, and fibrosis markers. Two studies were performed on this diet-induced NASH model with different compounds and treatment durations. […] Serum biochemistry was measured before dosing during study. At the end of the experiment, liver was collected to measure liver TC and TG. Livers were punched in 2 mm diameter and fixed, sectioned and stained with Sirius Red, and the fibrosis and steatosis were scored.

[4] = test system: C57BL/6cnc mice; experiment: Cholesterol-lowering efficacy in high cholesterol diet-induced hypercholesterolemia mouse model; assay type: in vivo; settings: for compound concentration in heart: at end of study; for compound concentration in heart / blood and liver distribution / efficacy in reducing liver cholesterol compared with MGL-3196 / expression of DIO1 in liver: high cholesterol diet mice; for blood and liver distribution: compound concentration at end of study; for LDL-c / plasma TC / liver TC / liver TG: high cholesterol diet mice, 0.3, 1, 3 mg/kg daily oral gavage; for LDL-c / plasma TC: 2-week treatment; for expression of DIO1 in liver: qPCR, mRNA of THRβ target gene; for liver TC / liver TG: 2 weeks
Experimental: To further confirm the PD effects of compounds, another diet induced NAFLD mouse model was used. C57BL/6cnc mice were fed with the diet containing 1.5% cholesterol and 0.5% cholic acid (Research Diets, D12109C) for 2 weeks prior to the initiation of treatment. The cholesterol lowering efficacy of compounds disclosed herein was tested in two separate studies. […] Thyroid hormone T3 (0.1 mg/kg, intraperitoneal injection) was evaluated as a positive control in the second study. The treatment lasted two weeks with daily oral gavage. Blood samples were taken at the end of study for plasma cholesterol and LDL-c detection. At the end of study, the liver tissues were taken for measurement of the hepatic cholesterol levels. DIO1 is a THRβ target gene in liver, and its mRNA level reflects the activity of THRO. Therefore, the expression of DIO1 was also quantitated in liver tissue by qPCR to examine the target engagement by these compounds. The compound concentration was quantified in blood, liver and heart.

[5] = target: T3, THRβ-LBD (Homo sapiens, UniProt P10828)
T3 sequence (P10828 217-461 limits assumed): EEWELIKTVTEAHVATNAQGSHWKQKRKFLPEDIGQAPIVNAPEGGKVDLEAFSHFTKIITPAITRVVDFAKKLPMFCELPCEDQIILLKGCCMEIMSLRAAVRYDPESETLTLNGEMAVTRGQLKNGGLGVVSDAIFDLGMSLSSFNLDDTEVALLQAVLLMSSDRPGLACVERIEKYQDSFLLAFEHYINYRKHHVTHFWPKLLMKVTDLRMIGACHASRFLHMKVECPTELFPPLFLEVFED
Experimental: The coactivator recruitment assay was performed using LanthaScreen™ TR-FRET TR coactivator assay kit (ThermoFisher). […] THRβ-LBD (ligand binding domain) or THRα-LBD was added to test compounds at a final concentration of 2.5 nM followed by addition of a mixture of the fluorescein-coactivator peptide and terbium-conjugated anti-GST antibody. The diluted test compounds were mixed with the same volume of other reagents (10 μl:10 μl). After 2-hour incubation period at room temperature, the plate was read at wavelengths of 520 nm and 495 nm using Envison plate reader (PerkinElmer). […] In addition, the selectivity for each compound was normalized for the selectivity of T3 run in the same assay.

[6] = test system: C57BL/6cnc mice; experiment: Synergistic effect of Example 7 with other NASH compounds in mouse model; assay type: in vivo; settings: Example 7 0.3 mg/kg oral daily with liraglutide, Elafibranor or CDDO-Me, 2 weeks
Description: There are other candidates being developped for inflammation, metabolism syndromes or NASH These include glucagon-like peptide-1 (GLP-1) receptor agonist liraglutide, peroxisome proliferator-activated receptor-α and -β (PPAR-α/δ) agonist elafibranor, and nuclear erythroid 2-related factor 2 (NRF2) activator bardoxolone methyl (CDDO-Me). These candidates target different proteins and pathways, therefore have different mechanisms of action related to steatosis, inflammation, and fibrosis.
as §2, with “[…] An Example 7 alone group and a vehicle group” for “Two studies”, “also set up for controls.” for “performed on this diet-induced NASH model with different compounds and treatment durations.”, “After 2-week treatment, serum” for “Serum”, “measured;” for “measured before dosing during study. At the end of the experiment,”

[7] = test system: α-MHC; experiment: Heart safety evaluation in hypothyroid rat: cardiac α-MHC expression; assay type: in vivo; settings: intraperitoneal, 37.5 mg/kg (T3 0.1 mg/kg), heart tissue after 6 hours
Experimental: SD Rats underwent thyroidectomy and recovered for 10 days. T3 and T4 were tested to confirm the complete thyroidectomy. […] Note that the dose for these compounds was […] higher than their therapeutic dose (1 mg/kg by oral gavage) in mouse models. For comparison, thyroid hormone T3 was also tested at 0.1 mg/kg with intraperitoneal injection. […] After 6 hours, the heart tissues were collected to quantitate the expression of α-MHC, a thyroid hormone responsive and THRα-target gene in heart.

[8] = first NASH study, 12 weeks, as early as 6 days after treatment

T2 sequence (P33261 whole entry): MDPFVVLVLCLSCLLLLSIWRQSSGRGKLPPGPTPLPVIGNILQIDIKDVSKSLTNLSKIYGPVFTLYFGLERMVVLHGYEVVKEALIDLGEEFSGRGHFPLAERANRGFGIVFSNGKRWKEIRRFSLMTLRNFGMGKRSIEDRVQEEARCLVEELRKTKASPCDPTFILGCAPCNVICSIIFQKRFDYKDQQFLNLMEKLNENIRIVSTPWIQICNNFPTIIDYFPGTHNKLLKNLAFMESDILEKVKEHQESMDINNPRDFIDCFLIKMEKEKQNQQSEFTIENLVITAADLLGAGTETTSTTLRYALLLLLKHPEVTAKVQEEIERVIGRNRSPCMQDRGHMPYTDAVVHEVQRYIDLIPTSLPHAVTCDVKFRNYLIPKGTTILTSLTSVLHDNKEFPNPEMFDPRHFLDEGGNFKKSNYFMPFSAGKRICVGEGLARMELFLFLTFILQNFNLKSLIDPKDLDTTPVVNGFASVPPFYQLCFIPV
T1 sequence (P08684 whole entry): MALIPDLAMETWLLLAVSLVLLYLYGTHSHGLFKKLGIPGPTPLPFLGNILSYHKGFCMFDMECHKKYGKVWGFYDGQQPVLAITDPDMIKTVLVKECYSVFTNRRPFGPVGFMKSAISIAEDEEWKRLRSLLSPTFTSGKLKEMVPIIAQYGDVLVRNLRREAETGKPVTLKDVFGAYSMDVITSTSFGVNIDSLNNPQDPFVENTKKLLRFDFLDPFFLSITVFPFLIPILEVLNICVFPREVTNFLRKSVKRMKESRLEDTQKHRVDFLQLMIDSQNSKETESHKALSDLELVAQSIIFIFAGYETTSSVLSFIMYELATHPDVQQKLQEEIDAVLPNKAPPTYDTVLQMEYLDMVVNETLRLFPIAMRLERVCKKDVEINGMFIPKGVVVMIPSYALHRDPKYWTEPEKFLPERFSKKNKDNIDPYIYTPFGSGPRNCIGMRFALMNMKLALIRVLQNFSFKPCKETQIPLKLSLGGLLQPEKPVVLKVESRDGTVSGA

Compound | IC50 [1] | IC50 [2] | overall activity in the second NASH study, compounds compared ([3]; 6 weeks) | LDL-c level ([3]; second NASH study, 6 weeks) | liver TC ([3]; second NASH study, 6 weeks) | liver TG ([3]; second NASH study, 6 weeks) | plasma TC level ([3]; second NASH study, 6 weeks) | expression of DIO1 in liver ([3]; second NASH study) | compound concentration in heart [4] | blood and liver distribution [4] | efficacy in reducing liver cholesterol compared with MGL-3196 [4] | LDL-c [4] | plasma TC [4] | expression of DIO1 in liver [4] | liver TC ([3]; first NASH study, 12 weeks) | liver TG ([3]; first NASH study, 12 weeks) | plasma LDL-c level ([3]; first NASH study, 12 weeks) | plasma TC level [3, 8] | ALT level ([3]; first NASH study, 12 weeks) | liver weight ([3]; first NASH study, 12 weeks) | further results
C[C@@H]1CCc2c(Oc3c(Cl)cc(-n4nc(C#N)c(=O)[nH]c4=O)cc3Cl)n[nH]c(=O)c21 (single isomer, unassigned) [Example 41] | > 50 µM | > 50 µM | equivalent | reduced | significantly decreased | significantly decreased | reduced | significantly increased | not detectable | similar | as effective as MGL-3196 | reduced | reduced | dose-dependently upregulated | – | – | – | – | – | – | selectivity ratio [5]: 12.3
[2H]C([2H])([2H])C(c1cc(Oc2c(Cl)cc(-n3nc(C#N)c(=O)[nH]c3=O)cc2Cl)n[nH]c1=O)C([2H])([2H])[2H] [Example 7, 2-(3,5-dichloro-4-((6-oxo-5-(propan-2-yl-1,1,1,3,3,3-d6)-1,6-dihydropyridazin-3-yl)oxy)phenyl)-3,5-dioxo-2,3,4,5-tetrahydro-1,2,4-triazine-6-carbonitrile] | > 50 µM | > 50 µM | equivalent | reduced | significantly decreased | significantly decreased | reduced | significantly increased | not detectable | similar | as effective as MGL-3196 | reduced | reduced | dose-dependently upregulated | significantly decreased | significantly decreased | reduced to normal range | reduced | reduced | reduced | synergistic effect with other candidates in reduction of liver and plasma lipids and improvement of liver conditions [6]: significantly synergistic effect; fibrosis score ([3]; first NASH study, Sirius Red histopathology, versus control group and MGL-3196-treated group): much lower; liver TC [4]: significantly decreased; liver TG [4]: significantly decreased; expression of cardiac α-MHC [7]: not affected
[2H]c1c(Cl)c(Oc2cc(C(C([2H])([2H])[2H])C([2H])([2H])[2H])c(=O)[nH]n2)c(Cl)c([2H])c1-n1nc(C#N)c(=O)[nH]c1=O [Example 30, 2-(3,5-dichloro-4-((6-oxo-5-(propan-2-yl-1,1,1,3,3,3-d6)-1,6-dihydropyridazin-3-yl)oxy)phenyl-2,6-d2)-3,5-dioxo-2,3,4,5-tetrahydro-1,2,4-triazine-6-carbonitrile] | > 50 µM | > 50 µM | less potent | reduced | – | – | reduced | – | not detectable | similar | as effective as MGL-3196 | reduced | reduced | dose-dependently upregulated | – | – | – | – | – | – | –
CC(C)c1cc(Oc2c(Cl)cc(-n3nc(C#N)c(=O)[nH]c3=O)cc2Cl)n[nH]c1=O [MGL-3196, reference compound] | > 50 µM | > 50 µM | – | – | – | – | – | – | – | – | – | reduced | reduced | dose-dependently upregulated | significantly decreased | significantly decreased | reduced to normal range | reduced | reduced | reduced | liver TC [4]: significantly decreased; liver TG [4]: significantly decreased; expression of cardiac α-MHC [7]: not affected
